Literature values, collected in US20010043957A1, “Lypolytic composition” (priority 2000, published 2001).

Columns and labels:
[1] = group of animals
[2] = per day, most healthy people, caffeine and related methylxanthines

Row | SMILES | loss in body weight [1] | amount safely consumed without adverse reactions [2] | loss in body fat [1] [%]
1 | Cn1c(=O)c2c(ncn2C)n(C)c1=O [caffeine] | not significant loss in body weight | up to 200 mg | 
2 | CN[C@@H](C)[C@H](O)c1ccccc1 [ephedrine] | 14% |  | 42
